In patent US20230339882A1, “SHP2 INHIBITOR AND COMPOSITION AND APPLICATION THEREOF” (Betta Pharmaceuticals Co., Ltd., priority 2020, published 2023):

How the values were obtained:
SHP2 = SHP2 (Homo sapiens (Human), UniProt Q06124); assay: SHP2 allosteric inhibitory enzyme activity assay (DiFMUP fluorescence); format: biochemical; settings: read-out: SHP2 enzymatic activity IC50
Text: Example A: SHP2 Allosteric Inhibitory Enzyme Activity Assay
SHP2 is allosterically activated by binding of a bis-tyrosyl-phosphorylated peptide to its Src homology 2 (SH2) domain. This later activation step results in the release of the autoinhibitory interface of SHP2, which in turn activates the SHP2 protein tyrosine phosphatase (PTP) and is available for substrate recognition and reaction catalysis. The catalytic activity of SHP2 was monitored using the surrogate DiFMUP in a rapid fluorescence assay format.
experiment procedure: • (1) Compound preparation: • The compounds of the present invention (10 mM stock solution) were diluted to appropriate times with 100% DMSO, and the final test concentrations of the compounds of the present invention were 10 µM, 3.3333 µM, 1.1111 µM, 0.3704 µM, 0.1235 µM, 0.0412 µM, 0.0137 µM, 0.0046 µM, 0.0015 µM, 0.00 µM; • (2) Prepare the enzyme reaction working solution: • Perform SHP2 enzymatic assays in 96-well black polystyrene plates (flat bottom, low flange, non-binding surface) (Perki Elmer, Cat#6005270) at room temperature using a final reaction volume of 50 µL and the following assay buffer conditions: 60 mM HEPES, 75 mM NaCl, 75 mM KCl, 0.05% BRIJ-35, 1 mM EDTA, 5 mM DTT. • (3) Enzyme-catalyzed reaction and data monitoring: • Add the compound of the present invention to the corresponding 96-well plate, and set the blank test well without compound and enzyme only with buffer. Thaw SHP2 Activating Peptide (IRS1_pY1172(dPEG8)pY1222) on ice, add 25 µM to each well, then add 0.2 ng of SHP2 protein sample to the corresponding well plate and incubate at room temperature for 1 hour. The surrogate substrate DiFMUP (Invitrogen, Cat #D6567) was added to the reaction and allowed to react for 1 hour at room temperature. Fluorescence signals were monitored using a microplate reader (Envision, Perki Elmer) using excitation and emission wavelengths of 340 nm and […], respectively. • (4) Data analysis: • Calculation Formula: • [formula]
Among them: Conversion_sample is the conversion rate reading of the sample; Conversion_min is the average value of blank control wells, representing the conversion rate readings of wells without enzymatic activity; Conversion_max is the mean ratio of positive control wells, representing the conversion rate readings of wells without compound inhibition. The log(inhibitor) vs. response-Variable slope of the analysis software GraphPad Prism was used to fit the dose-response curve, and the IC50 value of the compound for the enzymatic activity was calculated.

leukemia cells MV-4-11 = assay: Cell proliferation assay, CELL TITER-GLO (CTG) luminescence, MV-4-11; format: cell-based
Procedure: (§1) Example B: Cell Proliferation Assay
(§2) The effects of the compounds of the invention on the proliferation of leukemia cells MV-4-11 and lung cancer cells NCI-H358 were evaluated using in vitro cell assays. The detection method used in the experiment is the CELL TITER-GLO (CTG) luminescence method, which can detect the number of viable cells by quantifying ATP. Because ATP participates in a variety of enzymatic reactions in vivo, it is an indicator of the metabolism of living cells, and its content directly reflects the number and state of cells. During the experiment, CellTiter-Glo™ reagent was added to the cell culture medium to measure the luminescence value. The value is proportional to the amount of ATP, and ATP is positively related to the number of living cells, so the cell viability can be examined by detecting the ATP content.
(§3) experiment procedure: • (1) Cell plating: • Take a bottle of MV-4-11 cells in logarithmic growth phase, resuspend the cells by centrifugation and count them. After adjusting the cell density, they were seeded into a 96-well plate (Corning #3917). After culturing in a 5% CO2 incubator for 24 hrs, the compound of the present invention was added for treatment; • Take a bottle of NCI-H358 cells in logarithmic growth phase, digest and resuspend the cells, count them, adjust the cell density, and inoculate them into a 96-well transparent ultra-low adsorption cell culture plate (Corning #3474), inoculate 2000 cells per well. The plate was placed in an incubator at 37° C. and 5% CO2 for 24 hrs, and then the compound of the present invention was added for treatment; • (2) Cell compound treatment: • An appropriate amount of the compound of the present invention was prepared for cell treatment. The final concentration of the compound from high to low was 1000 nM, 333.3 nM, 111.1 nM, 37.04 nM, 12.35 nM, 4.115 nM, 1.372 nM, 0.4572 nM, 0.1524 nM, and 0 nM. The plate was placed in a 37° C., 5% CO2 incubator for 120 hrs. Only adding medium without cell wells was set as the blank group; the group with compound concentration of 0 nM was the zero-adjusting group. • (3) CTG detection: • After NCI-H358 cells were cultured for 96 hrs, 50 µL of CellTiter-Glo® Luminescent Cell Viability Assay solution was added to each well, shaken gently for 2 mins, and incubated at room temperature for 10 mins. The cell reaction system was transferred to a white-bottomed 96-well plate. Read the detection value of each well on a multi-function microplate reader. • After MV-4-11 cells were cultured for 120 hrs, 50 µL of CellTiter-Glo® Luminescent Cell Viability Assay solution was added to each well, gently shaken for 2 mins, and incubated at room temperature for 10 mins. Check the value. • (4) Data analysis: • Calculate the inhibition rate from the luminescence value readings, • [formula]
(§4) The log(inhibitor) vs. response-Variable slope of GraphPad Prism was fitted to dose-response curves and IC50s of compounds that inhibited cell proliferation were calculated.

[1] = test system: lung cancer cells NCI-H358; assay: Cell proliferation assay, CELL TITER-GLO (CTG) luminescence, NCI-H358; format: cell-based; settings: cultured for 96 hrs
Procedure: as §1, §2, §3, §4

[2] = Homo sapiens, MV4-11, cultured for 120 hrs
[3] = Homo sapiens, NCI-H358, ultra-low adsorption plate

| Compound | IC50 (SHP2) [nM] | IC50 (leukemia cells MV-4-11; [2]) [nM] | IC50 [1, 3] [nM] | IC50 (leukemia cells MV-4-11; cultured for 120 hrs) [nM] | IC50 ([1]; ultra-low adsorption plate) [nM] |
| --- | --- | --- | --- | --- | --- |
| Cc1cc(OCC#Cc2cnc(N3CCC4(CC3)Cc3ccccc3[C@H]4N)c(CO)n2)ccc1C(N)=O [Compound A74, (S)-4-((3-(5-(1-amino-1,3-dihydrospiro[indene-2,4′-piperidin]-1′-yl)-6-(hydroxymethyl)pyrazin-2-yl)prop-2-yn-1-yl)oxy)-2-methylbenzamide] | 1.1 | 1.7 | 6.4 | – | – |
| N[C@@H]1c2ccccc2CC12CCN(c1ncc(C#CCNc3ccc(C(F)(F)F)nc3)nc1CO)CC2 [Compound A63, (S)-(3-(1-amino-1,3-dihydrospiro[indene-2,4′-piperidin]-1′-yl)-6-(3-( (6-(trifluoromethyl)pyridin-3-yl)amino)prop-1-yn-1-yl)pyrazin-2-yl)methanol] | 5 | 11 | 36 | – | – |
| (S)-(3-(1-amino-1,3-dihydrospiro[ indene-2,4′-piperidin]-1′-yl)-6-(3-( benzo[d][1,3]dioxyol-5-oxy)prop-1-yn-1-yl)pyrazin-2-yl)methanol [Compound A28] | 1.5 | – | – | 6.1 | 7 |
| (S)-(3-(1-amino-1,3-dihydrospiro[ indene-2,4′-piperidin]-1′-yl)-6-(3-( 3,4-dimethoxyphenoxy)prop-1-yn-1-y 1)pyrazin-2-yl)methanol [Compound A11] | 1.5 | – | – | 2.6 | 6.3 |
| N[C@@H]1c2ccccc2CC12CCN(c1ncc(C#CCNc3ccccc3)nc1CO)CC2 [Compound A07, (S)-(3-(1-amino-1,3-dihydrospiro [indene-2,4′-piperidine]-1′-yl)-6-(3-(phenylamino)prop-1-yn-1-yl)pyrazin-2-yl) methanol] | 2.5 | 5.5 | 12 | – | – |
| COc1cccc(SCC#Cc2cnc(N3CCC4(CC3)Cc3ccccc3[C@H]4N)c(CO)n2)c1 [Compound A06, (S)-(3-(1-amino-1,3-dihydrospiro[indene-2,4′-piperidin]-1′-yl)-6-(3-((3-methoxyphenyl)thio)prop-1-yn-1-yl)pyrazin-2-yl)methanol] | 6.8 | 8 | 11 | – | – |
| N[C@@H]1c2ccccc2CC12CCN(c1ncc(C#CCOc3ccccc3)nc1CO)CC2 [Compound A01, (S)-(3-(1-amino-1,3-dihydrospiro [indene-2,4′-piperidine]-1′-yl)-6-(3-phenoxyprop-1-yn-1-yl)pyrazin-2-yl)methanol] | 1.2 | 2.6 | 7.3 | – | – |
| COc1cc(OCC#Cc2cnc(N3CCC4(CC3)Cc3ccccc3[C@H]4N)c(CO)n2)ccn1 [Compound A49, (S)-(3-(1-amino-1,3-dihydrospiro[indene-2,4′-piperidin]-1′-yl)-6-(3-((2-methoxypyridine-4-yl)oxy)prop-1-yn-1-yl)pyrazin-2-yl)methanol] | 1.4 | 6.7 | 8.5 | – | – |
| COc1ccc2c(c1)[C@@H](N)C1(CCN(c3ncc(C#CCOc4ccc(C(N)=O)cc4)nc3CO)CC1)C2 [Compound A58, (S)-4-((3-(5-(1-amino-6-methoxy-1,3-dihydrospiro[indene-2,4′-piperidin]-1′-yl)-6-(hydroxymethyl)pyrazin-2-yl)prop-2-yn-1-yl)oxy)benzamide] | 1.5 | 0.8 | 4 | – | – |
| N[C@@H]1c2ccccc2CC12CCN(c1ncc(C#CCOc3ccc(C(=O)NC4CC4)cc3)nc1CO)CC2 [Compound A76, (S)-4-((3-(5-(1-amino-1,3-dihydrospiro[indene-2,4′-piperidin]-1′-yl)-6-(hydroxymethyl)pyrazin-2-yl)prop-2-yn-1-yl)oxy)-N-cyclopropyl benzamide] | 3.4 | – | – | 3.3 | 19 |
| N#Cc1cccc(OCC#Cc2cnc(N3CCC4(CC3)Cc3ccccc3[C@H]4N)c(CO)n2)c1 [Compound A53, (S)-3-((3-(5-(1-amino-1,3-dihydrospiro[indene-2,4′-piperidin]-1′-yl)-6-(hydroxymethyl)pyrazin-2-yl)prop-2-yn-1-yl)oxy)benzonitrile] | 3.3 | 8.1 | 27 | – | – |
| CC(=O)Nc1cccc(OCC#Cc2cnc(N3CCC4(CC3)Cc3ccccc3[C@H]4N)c(CO)n2)c1 [Compound A04, (S)-N-(3-((3-(5-(1-amino-1,3-dihydrospiro[indene-2,4′-piperidin]-1′-yl)-6-(hydroxymethyl)pyrazin-2-yl)prop-2-yn-1-yl)oxy)phenyl)acetamide] | 2.9 | 3.6 | 4 | – | – |
| Cn1nccc1Nc1ccc(OCC#Cc2cnc(N3CCC4(CC3)Cc3ccccc3[C@H]4N)c(CO)n2)cc1 [Compound A77] | 5.9 | – | – | 11 | 36 |
| CNc1ncc(OCC#Cc2cnc(N3CCC4(CC3)Cc3ccccc3[C@H]4N)c(CO)n2)cn1 [Compound A68, (S)-(3-(1-amino-1,3-dihydrospiro[indene-2,4′-piperidin]-1′-yl)-6-(3-( (2-(methylAmino)pyrimidin-5-yl)oxy)prop-1-yn-1-yl)pyrazin-2-yl) methanol] | 2.1 | 8.6 | 26 | – | – |
| N[C@@H]1c2ccccc2CC12CCN(c1ncc(C#CCOc3ccc4c(c3)CCNC4=O)nc1CO)CC2 [Compound A52, (S)-6-((3-(5-(1-amino-1,3-dihydrospiro[indene-2,4′-piperidin]-1′-yl)-6-(hydroxymethyl)pyrazin-2-yl)prop-2-yn-1-yl)oxy)-3,4-dihydroisoquinolin-1(2H)-one] | 1.6 | 1.5 | 4.6 | – | – |
| CC(=O)Nc1ccc(OCC#Cc2cnc(N3CCC4(CC3)Cc3ccccc3[C@H]4N)c(CO)n2)cc1 [Compound A08, (S)-N-(4-((3-(5-(1-amino-1,3-dihydrospiro [indene-2,4′-piperidine]-1′-yl) -6-(hydroxymethyl)pyrazin-2-yl)prop-2-yn-1-yl)oxy)phenyl) acetamide] | 3.3 | 2.1 | 3.8 | – | – |
| Cc1nc2cc(OCC#Cc3cnc(N4CCC5(CC4)Cc4ccccc4[C@H]5N)c(CO)n3)ccc2[nH]1 [Compound A73, (S)-(3-(1-amino-1,3-dihydrospiro[indene-2,4′-piperidin]-1′-yl)-6-(3-( (2-methyl-1H-Benzo[d]imidazol-5-yl)oxy)prop-1-yn-1-yl)pyrazin-2-yl)methanol] | 3.1 | 1.1 | 3.4 | – | – |
